Laboratory results as given in patent US10167285B2, “Small-molecule HSP90 inhibitors” (Memorial Sloan Kettering Cancer Center, priority 2005, dated 2019).
Where “and” joins values, the source holds several entries; their conditions need not be identical. Equal entries are not always repeated. Where two headings read alike, the source gives them in different places.

What was measured:
Hsp90 Brain = assay: Hsp90 competition assay, brain homogenate; type: binding, mouse; details: for EC50: normal tissue; for Brain/SKBr3: ratio of EC50 Hsp90 values
Procedure: (§3) Hsp90 competition assay. Fluorescence polarization measurements were performed on an Analyst AD instrument (Molecular Devices, Sunnyvale, Calif.). […] The assay buffer (HFB) contained 20 mM HEPES (K) pH 7.3, 50 mM KCl, 5 mM MgCl2, 20 mM Na2MoO4, 0.01% NP40. Before each use, 0.1 mg/mL bovine gamma globulin (BGG) (Panvera Corporation, Madison, Wis.) and 2 mM DTT (Fisher Biotech, Fair Lawn, N.J.) were freshly added. […] Cell lysates were prepared rupturing cellular membranes by freezing at −70° C. and dissolving the cellular extract in HFB with added protease and phosphotase inhibitors. Organs were harvested from a healthy mouse and homogenized in HFB. Saturation curves were recorded in which GM-BODIPY (5 nM) was treated with increasing amounts of cellular lysates.

[1] = test system: renal proximal tubular epithelial cells (RPTEC); assay: Growth inhibition of normal RPTEC cells; type: cell-based, human; details: for IC50: 72 h, read-out: IC50 RPTEC
Procedure: (§1) Cell culture. The human breast cancer cell lines SKBr3 and MDA-MB-468 were a gift from Dr. Neal Rosen (MSKCC). Cells were maintained in 1:1 mixture of DME:F12 supplemented with 2 mM glutamine, 50 units/mL penicillin, 50 […] and 10% heat inactivated fetal bovine serum (Gemini Bioproducts #100-10b) and incubated at 37° C., 5% CO2. Growth assays. Growth inhibition studies were performed using the sulforhodamine B assay as previously described.^29 In summary, experimental cultures were plated in microtiter plates (Nunc #167008). One column of wells was left without cells to serve as the blank control. Cells were allowed to attach overnight. The following day, growth medium having either drug or DMSO at twice the desired initial concentration was added to the plate in triplicate and was serially diluted at a 1:1 ratio in the microtiter plate. After 72 h of growth, the cell number in treated versus control wells was estimated after treatment with 50% trichloroacetic acid and staining with 0.4% sulforhodamine B in 1% acetic acid. […] Normal human renal proximal tubular epithelial (RPTEC) cells were purchased pre-seeded in 96-well plates (Clonetics, CC-3190). Upon receipt, cells were placed in a humidified incubator at 37° C., 5% CO2 and allowed to equilibrate for 3 h. Media was removed by suction and replaced with fresh media provided by the manufacturer. Cells were then treated with either drugs or DMSO for 72 h and the IC50 values were determined as described above.

Hsp90 SKBr3 = assay: Hsp90 competition assay, SKBr3 cell lysate; details: read-out: EC50 Hsp90 SKBr3
Procedure: Hsp90 competition assay. Fluorescence polarization measurements were performed on an Analyst AD instrument (Molecular Devices, Sunnyvale, Calif.). […] The assay buffer (HFB) contained 20 mM HEPES (K) pH 7.3, 50 mM KCl, 5 mM MgCl2, 20 mM Na2MoO4, 0.01% NP40. Before each use, 0.1 mg/mL bovine gamma globulin (BGG) (Panvera Corporation, Madison, Wis.) and 2 mM DTT (Fisher Biotech, Fair Lawn, N.J.) were freshly added. GM-BODIPY was synthesized as previously reported^23a and was dissolved in DMSO to form 10 μM solutions. Recombinant Hsp90α was purchased from Stressgen Bioreagents (cat. No. SPP-776), (Victoria, Canada). Cell lysates were prepared rupturing cellular membranes by freezing at −70° C. and dissolving the cellular extract in HFB with added protease and phosphotase inhibitors. […] Saturation curves were recorded in which GM-BODIPY (5 nM) was treated with increasing amounts of cellular lysates.

recombinant Hsp90α = recombinant Hsp90α (Homo sapiens (Human), UniProt P07900); assay: Hsp90 competition assay (fluorescence polarization), recombinant protein; type: binding; details: average of 3 measurements, displacement of fluorescent GM
Procedure: Hsp90 competition assay. Fluorescence polarization measurements were performed on an Analyst AD instrument (Molecular Devices, Sunnyvale, Calif.). […] The assay buffer (HFB) contained 20 mM HEPES (K) pH 7.3, 50 mM KCl, 5 mM MgCl2, 20 mM Na2MoO4, 0.01% NP40. Before each use, 0.1 mg/mL bovine gamma globulin (BGG) (Panvera Corporation, Madison, Wis.) and 2 mM DTT (Fisher Biotech, Fair Lawn, N.J.) were freshly added. GM-BODIPY was synthesized as previously reported^23a and was dissolved in DMSO to form 10 μM solutions.

Her2 = Her2 assay (microtiter immunoassay of Her2 degradation); type: cell-based, human
Procedure: Her2 assay. SKBr3 cells were plated in black, clear-bottom microtiter plates (Corning #3603) at 3,000 cells/well in growth medium (100 μl) and allowed to attach for 24 h at 37° C. and 5% CO2. Growth medium (100 μl) with drug or vehicle (DMSO) was carefully added to the wells, and the plates were placed at 37° C. and 5% CO2. Following 24 h incubation with drugs, wells were washed with ice-cold Tris buffer saline (TBS) containing 0.1% Tween 20 (TBST) (200 μl). A house vacuum source attached to an eight-channel aspirator was used to remove the liquid from the plates. Further, methanol (100 μl at −20° C.) was added to each well, and the plate was placed at 4° C. for 10 min. Methanol was removed by washing with TBST (2×200 μl). After further incubation at RT for 2 h with SuperBlockR (Pierce 37535) (200 μl), anti-Her-2 (c-erbB-2) antibody (Zymed Laboratories #28-004) (100 μl, 1:200 in SuperBlockR) was placed in each well. The plate was incubated overnight at 4° C. For control wells, 1:200 dilution of a normal rabbit IgG (Santa Cruz #SC-2027) in SuperblockR was used. Each well was washed with TBST (2×200 μl) and incubated at RT for 2 h with an anti-rabbit HRP-linked antibody (Sigma, A-0545) (100 μl, 1:2000 in SuperBlockR). Unreacted antibody was removed by washing with TBST (3×200 μl), and the ECLTM Western blotting reagent (Amersham #RPN2106) (100 μL) was added. The plate was immediately read in an Analyst AD plate reader (Molecular Devices). Each well was scanned for 0.1 s. Readings from wells containing only control IgG and the corresponding HRP-linked secondary antibody were set as background and deducted from all measured values.

MDA-MB-468 cells = assay: Anti-mitotic assay (Tg-3 microtiter immunoassay); type: cell-based, human; details: 24 h, concentration dependent increase in Tg-3 luminescence
Procedure: Anti-mitotic assay. Black, clear-bottom microtiter 96-well plates (Corning Costar #3603) were used to accommodate experimental cultures. MDA-MB-468 cells were seeded in each well at 8,000 cells per well in growth medium (100 μL), and allowed to attach overnight at 37° C. and 5% CO2. Growth medium (100 μL) with drug or vehicle (DMSO) was gently added to the wells, and the plates were incubated at 37° C. and 5% CO2 for 24 h. Wells were washed with ice-cold TBST (2×200 μL). A house vacuum source attached to an eight-channel aspirator was used to remove the liquid from the 96-well plates. Ice-cold methanol (100 μL) was added to each well, and the plate was placed at 4° C. for 5 min. Methanol was removed by suction and plates were washed with ice-cold TBST (2×200 μL). Plates were further incubated with SuperBlock® blocking buffer (Pierce #37535) (200 μL) for 2 h at RT. The Tg-3 antibody (gift of Dr. Davies, Albert Einstein College of Medicine) diluted 1:200 in SuperBlock® was placed in each well (100 μL) except the control column that was treated with control antibody (Mouse IgM, NeoMarkers, NC-1030-P). After 72 h, wells were washed with ice-cold TBST (2×200 μL). […] Un-reacted antibody was removed by washing the plates with ice-cold TBST (3×200 μL) for 5 min on a shaker. The ECLTM Western Blotting Detection Reagents 1 and 2 in 1:1 mix (100 μL) was placed in each well and the plates were read immediately in an Analyst AD plate reader (Molecular Devices). Luminescence readings were imported into SOFTmax PROR 4.3.1. Anti-mitotic activity was defined as a concentration dependent increase in luminescence readings in compound-treated wells as compared to DMSO only treated wells.

SCLC cell lines = assay: Cell death and apoptosis across the SCLC cell lines; type: cell-based; details: each of the SCLC cell lines, FIGS. 6A and B
Hsp90 lung = assay: Hsp90 competition assay, lung homogenate; details: for Lung/SKBr3: ratio of EC50 Hsp90 values; for EC50: read-out: EC50 Hsp90 lung, normal tissue
Procedure: as §3

Hsp90 heart = assay: Hsp90 competition assay, heart homogenate; details: for Heart/SKBr3: ratio of EC50 Hsp90 values; for EC50: read-out: EC50 Hsp90 heart, normal tissue
Procedure: as §3

[2] = test system: SKBr3 breast cancer cells; assay: Growth inhibition, sulforhodamine B assay; type: cell-based, human; details: average of 3 measurements
Procedure: as §1

[3] = Tumor and plasma concentration in MDA-MB-468 xenografted mice; type: in vivo; details: 24 hours after intraperitoneal injection
Procedure: (§2) Mice xenografted with MDA-MB-468 human breast cancer tumors were treated by intraperitoneal injection with Compound 5 at a dosage levels of 25, 50, 75, 100 and 150 mg/kg. The concentration of Compound 5 in the tumor 24 hours after administration was determined. […] Compound 5 was further tested for its effects on the pharmacodynamic marker Raf-1 kinase. Hsp90 stabilizes this kinase and maintains it in ready-to-be-activated conformation. Inhibition of Hsp90 leads to disruption of the complex and further ubiquitinylation and degradation of Raf-1 by the proteasome. Thus, Raf-1 degradation in tumors is a functional read-out of Hsp90 inhibition.

Raf-1 kinase = assay: Raf-1 protein levels in MDA-MB-468 tumors; type: in vivo, mice; details: all dosage levels, FIG. 10B
Procedure: as §2

PI3 kinase = PI3 kinase expression in MDA-MB-468 tumors; type: in vivo, mice; details: protein unaffected by Hsp90 inhibitors
Solubility in PBS = type: physicochemical; details: aqueous buffer, acid addition salt form
Procedure: Growth over 96 h was assessed.

[4] = Her2 degradation in SKBr3 cells, 24 h; average of 3 measurements
[5] = Homo sapiens, SK-BR-3; Her2 degradation in SKBr3 cells, 24 h; average of 3 measurements

| Compound | EC50 (recombinant Hsp90α; read-out: EC50 Hsp90-α) [µM] | IC50 ([2]; Homo sapiens, SK-BR-3, 72 h) [µM] | Anti-mitotic (MDA-MB-468 cells) | IC50 (Her2; [5]) [µM] | also measured |
| --- | --- | --- | --- | --- | --- |
| 9-(Pent-4-ynyl)-8-(2,4,5-trichloro-phenylsulfanyl)adenine [Example 2] | – | – | – | – | EC50 (Hsp90 Brain): 26.7 ± 7.7 µM; Brain/SKBr3 (Hsp90 Brain): 298; IC50 ([1]; normal cells): 28.1 ± 2.2 µM; RPTEC/SKBr3 ([1]; ratio of growth IC50 values): 15.6; EC50 (Hsp90 SKBr3): 0.09 ± 0.03 µM |
| C#CCCCn1c(Sc2cc3c(cc2Br)OCO3)nc2c(N)ncnc21 [Example 1, 9-(Pent-4-ynyl)-8-(6-bromo-benzo[1,3]dioxol-5-ylsulfanyl)adenine] | – | – | Yes | – | EC50 (recombinant Hsp90α; EC50 Hsp90-α): 0.03 µM and 0.0508 µM; IC50 (Her2; [4]): 0.365 ± 0.045 µM; IC50 (Her2; Homo sapiens, SK-BR-3, 24 h, Her2 degradation in SKBr3 cells, average of 3 measurements): 0.3 ± 0.05 µM; EC50 (Hsp90 Brain): 40.2 ± 25.3 µM; Brain/SKBr3 (Hsp90 Brain): 2000; IC50 ([1]; Homo sapiens, RPTEC): 4.1 ± 0.9 µM; induction of apoptosis (SCLC cell lines): induced apoptosis; Lung/SKBr3 (Hsp90 lung): 735; EC50 (Hsp90 lung): 14.7 ± 1.7 µM; Heart/SKBr3 (Hsp90 heart): 3265; EC50 (Hsp90 heart): 65.3 ± 9.9 µM; EC50 (Hsp90 SKBr3): 0.02 ± 0.06 µM |
| C#CCCCn1c(Sc2cc(Cl)c(Cl)cc2Cl)nc2c(N)ncnc21 [Example 2, 9-(Pent-4-ynyl)-8-(2,4,5-trichloro-phenylsulfanyl)adenine] | 8.5 ± 0.1 | 48.4 ± 2.5 | No | 58 ± 1.4 | – |
| COc1cc(Sc2nc3c(N)ncnc3n2CCOC(C)C)c(Cl)cc1Cl [Example 3, 9-(2-Isopropoxy-ethyl)-8-(2,4-dichloro-5-methoxy-benzenesulfanyl)adenine] | 5 ± 1.1 | – | No | – | IC50 (Her2; [4]): 58.3 ± 2.2 µM; IC50 ([2]; 72 h): 16.1 ± 0.7 µM |
| Nc1ncnc2nc(Sc3cc(Cl)c(Cl)cc3Cl)[nH]c12 [Example 4, 8-(2,4,5-Trichloro-phenylsulfanyl)adenine] | 15.4 ± 2.2 | 36 ± 0.2 | Yes | 47.8 ± 3.2 | – |
| CC(C)NCCCn1c(Sc2cc3c(cc2Br)OCO3)nc2c(N)ncnc21 [Example 5, 8-(6-Bromo-benzo[1,3]dioxol-5-ylsulfanyl)-9-(3-isopropylamino-propyl)adenine] | – | 0.142 ± 0.022 | Yes | – | detection in plasma [3]: could not be detected; Raf-1 levels (% control) (Raf-1 kinase): substantial decrease; expression of PI3 kinase (PI3 kinase): no change in expression |

Further lines, with some results ahead:

| EC50 (recombinant Hsp90α; read-out: EC50 Hsp90-α) [µM] | IC50 ([2]; Homo sapiens, SK-BR-3, 72 h) [µM] | Compound | Anti-mitotic (MDA-MB-468 cells) | IC50 (Her2; [5]) [µM] | also measured |
| --- | --- | --- | --- | --- | --- |
| 0.0565 ± 0.002 | 0.215 ± 0.055 | C#CCCCn1c(Cc2cc3c(cc2Br)OCO3)nc2c(N)nc(F)nc21 [Example 6, 2-Fluoro-8-(6-bromo-benzo[1,3]dioxol-5-ylmethyl)-9-(pent-4-ynyl)adenine] | Yes | 0.21 ± 0.01 | Lung/SKBr3 (Hsp90 lung): 134; EC50 (Hsp90 lung): 5.2 ± 0.21 µM; Heart/SKBr3 (Hsp90 heart): 343; EC50 (Hsp90 heart): 13.3 ± 0.21 µM; EC50 (Hsp90 SKBr3): 0.0388 ± 0.003 µM |
| 0.0772 ± 0.001 | 0.25 ± 0.03 | C#CCCCn1c(Cc2cc3c(cc2Cl)OCO3)nc2c(N)nc(F)nc21 [Example 7, 2-Fluoro-8-(6-chloro-benzo[1,3]dioxol-5-ylmethyl)-9-(pent-4-ynyl)adenine] | Yes | 0.3 ± 0.015 | – |
| 0.0504 ± 0.004 | 0.045 ± 0.006 | CC(C)NCCCn1c(Cc2cc3c(cc2I)OCO3)nc2c(N)nc(F)nc21 [Example 8, 2-Fluoro-8-(6-iodo-benzo[1,3]dioxol-5-ylmethyl)-9-(3-isopropylamino-propyl) adenine] | Yes | 0.08 ± 0.01 | solubility (Solubility in PBS): > 5 mM |
| – | 0.09 ± 0.002 | C#CCCCn1c(Sc2cc3c(cc2I)OCO3)nc2c(N)ncnc21 [Example 10, 8-(6-Iodo-benzo[1,3]dioxol-5-ylsulfanyl)-9-(pent-4-ynyl)adenine] | Yes | 0.1 ± 0.01 | Lung/SKBr3 (Hsp90 lung): 136; EC50 (Hsp90 lung): 2.2 ± 0.4 µM; Heart/SKBr3 (Hsp90 heart): 370; EC50 (Hsp90 heart): 6 ± 0.2 µM; EC50 (Hsp90 SKBr3): 0.0161 ± 0.001 µM |
| 0.0223 ± 0.002 | 0.09 ± 0.03 | C#CCCCn1c(Cc2cc3c(cc2I)OCO3)nc2c(N)nc(F)nc21 [Example 11, 2-Fluoro-8-(6-iodo-benzo[1,3]dioxol-5-ylmethyl)-9-(pent-4-ynyl)adenine] | Yes | 0.09 ± 0.01 | – |
| > 15 | > 50 | C#CCCCn1c(Cc2cc(OC)c(OC)cc2I)nc2c(N)nc(F)nc21 [Example 12, 2-Fluoro-8-(2-iodo-4,5-dimethoxy-benzyl)-9-(pent-4-ynyl)adenine] | No | > 50 | – |
| > 15 | 55 ± 2.3 | C#CCCCn1c(Cc2cc(OC)c(OC)cc2Br)nc2c(N)nc(F)nc21 [Example 13, 2-Fluoro-8-(2-bromo-4,5-dimethoxy-benzyl)-9-(pent-4-ynyl)adenine] | No | > 50 | – |
| 4.6 ± 0.02 | 20.6 ± 6.7 | C#CCCCn1c(Cc2cc(OC)c(OC)cc2Cl)nc2c(N)nc(F)nc21 [Example 14, 2-Fluoro-8-(2-chloro-4,5-dimethoxy-benzyl)-9-(pent-4-ynyl)adenine] | No | 30 ± 1 | – |
